Data published in patent publication US20230041228A1, “Small Molecule Inhibition of Micro-RNA-210 Reprograms an Oncogenic Hypoxic Circuit” (University of Florida Research Foundation, Incorporated, priority 2017, published 2023).
Entries after “also recorded” stand apart in the source; their conditions may differ.

Legend:
[1] = test system: miR-210 hairpin precursor; assay: Cellular Chem-CLIP and C-Chem-CLIP, miR-210; type: cell-based; conditions: read-out: concentration required to inhibit ˜50% of the reaction of Targapremir-210-CA-Biotin with the miR-210 hairpin precursor (C-Chem-CLIP); MDA-MB-231 cells, 200 nM probe
Protocol: (§1) MDA-MB-231 cells were grown in growth medium as monolayers in 60 mm dishes to ˜60% confluency. […] Cells were immediately placed under hypoxic conditions for 48 h, and total RNA was extracted using a Quick-RNA MiniPrep (Zymo Research) per the manufacturer's protocol. Approximately 10 μg of total RNA was incubated with 100 μL of streptavidin-agarose beads in 1× PBS for 1 h at room temperature with gentle shaking. The solution was removed and the beads were washed 8 times with 300 μL of in 1× PBS. Bound RNA was released from the beads by heating in 1× Elution Buffer (95% formamide, 10 mM EDTA, pH 8.2) at 60° C. for 20 min. The pulled-down RNA was purified using a Quick-RNA MiniPrep Kit (Zymo Research) and then used for subsequent RT and qPCR reactions as described above.
(§2) The relative fold-change in the amount of an RNA before and after pull-down was calculated by the ΔΔCt method as shown in equation 1: […]
(§3) Relative Fold−Change:2^−(ΔC^t ^before pull-down−Δc^t ^after pull-down) (1)
(§4) where the “ΔCt before pull-down” is the difference between the Ct values for the RNA of interest and a housekeeping gene (U6 small nuclear RNA, GAPDH mRNA, or 18S rRNA) in total RNA isolated from cells and “ΔCtafter pull-down” is the difference between the Ct values the RNA of interest and the same housekeeping gene after pull-down.

[2] = test system: MDA-MB-231-GFP-Luc tumors; assay: TNBC mouse xenograft model, tumor burden; type: in vivo, NOD/SCID mice; conditions: 200 nM, cell pre-treatment or single injection 24 h post-implantation; 21 days
Protocol: NOD/SCID mice (B6.CB17-Prkdcscid/Sz, Jackson Laboratories) were housed in the Scripps Florida vivarium. All live animal experiments were approved by the Scripps Florida Institutional Animal Care and Use Committee. Two sets of experiments were completed: treatment of MDA-MB-231-GFP-luc cells prior to implantation and treatment of mice post-tumor implantation. For pre-treatment of tumor cells, MDA-MB-231-GFP-luc cells (5×10^6) were treated with or without Targapremir-210 (200 nM) or anti-miR-210 antagomir (500 nM) for 48 h pre-implantation. A 100 μL PBS/Matrigel (1:1; BD Biosciences) cell suspension was subcutaneously transplanted into mouse breast fat pads. Alternatively, mouse breast fat pads were injected with a 100 μL PBS/Matrigel (1:1) cell suspension (5×10^6MDA-MB-231-GFP-luc cells) followed by intraperitoneal (i.p) injection of Targapremir-210 (100 μL of 200 nM) or anti-miR-210 antagomir (100 μL of 500 nM) 24 h post-transplantation.
Tumor growth was monitored weekly post-implantation by i.p. injection of 200 μL D-luciferin (15 mg/mL) and imaging with an IVIS 200 system. Tumors were resected 21 days post-transplantation following euthanasia. Levels of mature miR-210, HIF-1a, and GPLDL1 RNAs were measured by RT-qPCR as described above.

HIF-1α mRNA [3] = assay: RT-qPCR of HIF-1α mRNA in hypoxic MDA-MB-231 cells; type: cell-based; conditions: 200 nM
Protocol: (§5) MDA-MB-231 cells were cultured in RPMI 1640 medium supplemented with 10% FBS (Sigma), 1× Glutagro (Corning), and 1× Pen/Strep (MP Biomedicals, LLC) (growth medium). Cells cultured in normoxia were maintained at 37° C. in ambient atmosphere (˜21% O2) with 5% CO2. Cells cultured in hypoxia were maintained at 37° C., <1% O2 in a nitrogen filled hypoxic chamber (Billups-Rothenberg, Inc.), and 5% CO2.
(§6) Approximately 200-600 ng of RNA was used in subsequent reverse transcription reactions using a miScript II RT Kit (Qiagen) or a qScript cDNA Synthesis Kit (Quanta Biosciences) per the manufacturers' recommended protocols. Primers for RT-qPCR were purchased from Integrated DNA Technologies (IDT) or Eurofins (Table S1) and used without further purification. RT-qPCR samples were prepared using Power SYBR Green PCR Master Mix (Applied Biosystems) and completed by using a 7900HT Fast Real Time PCR System (Applied Biosystems). Expression levels of RNA were normalized to U6 small nuclear RNA, GAPDH mRNA, or 18S rRNA.

[4] = test system: hypoxia-associated miRNAs; assay: Cellular Chem-CLIP and C-Chem-CLIP, hypoxia-associated miRNAs; type: cell-based
Protocol: as §1, §2, §3, §4

[5] = target: pre-miR-210 Dicer site, 5′ACU3′/3′UCA5′; conditions: 5′ACU3′/3′UCA5′ motif; reference 15; read-out: Kd, binding affinity for the pre-miR-210 Dicer site; cited from earlier work
pre-miR-210 RNA = assay: In solution fluorescent binding assay; conditions: compared with binding to the Dicer site motif
Protocol: Dissociation constants for the binding of pre-miR-210 RNA to Hoechst 33342 and Targapremir-210 were determined using an in solution, fluorescent binding assay. RNA was folded in 1× Binding Buffer (8 mM Na2HPO4, 190 mM NaCl, 1 mM EDTA, and 40 μg/mL BSA) at 60° C. for 5 min and then allowed to cool to room temperature for 10 min. Hoechst 33342 or Targapremir-210 was added to a final concentration of 500 nM. Next, 1:2 serial dilutions were performed in 1× Binding Buffer supplemented with 500 nM of Hoechst 33342 or Targapremir-210. Solutions were incubated for 30 min and then transferred to Corning non-binding surface 96-well black plates. Fluorescence intensity was then measured on a Bio-Tek FLX-800 plate reader. Change in fluorescence intensity was fit as a function of RNA concentration with equation 1: […]
where I and I0 are the observed fluorescence intensity in the presence and absence of RNA, respectively, Δε is the difference between the fluorescence intensity in the absence and in the presence of infinite RNA concentration, [FL]0 and [RNA]0 are the concentrations of compound (Hoechst 33342 or Targapremir-210) and RNA, respectively, and Kt is the dissociation constant.

GPD1L mRNA = assay: RT-qPCR of resected tumors, GPD1L; type: in vivo, NOD/SCID mice; conditions: compared to untreated tumors
Protocol: as §6
(§7) NOD/SCID mice (B6.CB17-Prkdcscid/Sz, Jackson Laboratories) were housed in the Scripps Florida vivarium. All live animal experiments were approved by the Scripps Florida Institutional Animal Care and Use Committee. Two sets of experiments were completed: treatment of MDA-MB-231-GFP-luc cells prior to implantation and treatment of mice post-tumor implantation. For pre-treatment of tumor cells, MDA-MB-231-GFP-luc cells (5×10^6) were treated with or without Targapremir-210 (200 nM) or anti-miR-210 antagomir (500 nM) for 48 h pre-implantation. […]
(§8) Tumor growth was monitored weekly post-implantation by i.p. injection of 200 μL D-luciferin (15 mg/mL) and imaging with an IVIS 200 system. […] Levels of mature miR-210, HIF-1a, and GPLDL1 RNAs were measured by RT-qPCR as described above.

[6] = test system: 15 miRNAs that have an RNA isoform that binds Targapremir-210; assay: Cellular Chem-CLIP, RNA isoforms; type: cell-based; conditions: MDA-MB-231 cells; miR-497, miR-1273c, miR-3174, miR-107
Protocol: as §1, §2, §3, §4

[7] = test system: miRNAs with predicted compound binding sites; assay: Cellular selectivity, RT-qPCR of RNA isoforms; type: cell-based; conditions: hypoxic MDA-MB-231 cells
Protocol: as §5, §6

miR-210 [8] = assay: RT-qPCR of resected tumors, miR-210; type: in vivo, NOD/SCID mice; conditions: compared to untreated tumors
Protocol: as §6, §7, §8

MDA-MB-231 cells = assay: Apoptosis by Annexin V/propidium iodide staining and flow cytometry; type: cell-based; conditions: 200 nM
Protocol: as §5

[9] = Tumor localization by fluorescent microscopy; type: in vivo, NOD/SCID mice; conditions: single i.p. injection
Protocol: Resected tumor samples were frozen using O.C.T. Compound (Tissue-Tek) over dry ice. Frozen tissues were sectioned by cryostat and transferred to microscope slides. Fluorescent microscopic analysis was carried out using a Leica DMI3000 B upright fluorescent microscope.

GPD1L = assay: RT-qPCR of GPD1L in hypoxic MDA-MB-231 cells; type: cell-based; conditions: 200 nM
Protocol: as §5, §6

[10] = test system: panel of hypoxia-associated miRNAs (n=28); assay: Cellular selectivity, RT-qPCR of hypoxia-associated miRNAs; type: cell-based; conditions: 200 nM, MDA-MB-231 cells
Protocol: as §5, §6

[11] = test system: RNA in which the Dicer site was ablated; conditions: reference 15; cited from earlier work
[12] = test system: miR-210 hairpin precursor (pre-miR-210), Dicer processing; assay: In vitro Dicer protection assay; type: biochemical; conditions: recombinant human Dicer, gel quantification
Protocol: The miR-210 precursor was 5′-end labeled with [γ-^32P] ATP and T4 polynucleotide kinase as previously described^4. The RNA was then folded in 1× Reaction Buffer (Genlantis) by heating at 60° C. for 5 min and slowly cooling to room temperature, where it was then supplemented with 1 mM ATP and 2.5 mM MgCl2. Targapremir-210 was added to the reaction mixture and the samples were allowed to incubate at room temperature for 15 min. Recombinant human Dicer enzyme (Genlantis) was added to a final concentration of 0.01 U/μL and the samples were incubated for an additional 30 min at 37 ° C. Reactions were stopped by adding in 2× Gel Loading Buffer (8 M urea, 50 mM EDTA, 0.05% (w/v) bromophenol blue, 0.05% (w/v) xylene cyanol). To generate sequencing markers, pre-miR-210 was digested with RNase T1 (0.125 U/μL) in T1 Buffer (25 mM sodium citrate, pH 5, 7 M urea, and 1 mM EDTA) for 20 min at room temperature. An RNA hydrolysis ladder was prepared by incubating RNA in 1× RNA Hydrolysis Buffer (50 mM NaHCO3, 1 mM EDTA, pH 9.4) at 95° C. for 5 min. Cleavage products were resolved on a denaturing 15% polyacrylamide gel, which was imaged using a Molecular Dynamics Typhoon phosphorimager and quantified with Bio-Rad's QuantityOne software.

HIF-1α mRNA [13] = assay: RT-qPCR of resected tumors, HIF-1α; type: in vivo, NOD/SCID mice; conditions: compared to untreated tumors
Protocol: as §6, §7, §8

Topoisomerase II = target: T1, Topoisomerase II (Homo sapiens, UniProt P11388); assay: In vitro topoisomerase inhibition assay; type: biochemical; conditions: 200 nM
T1 construct: purchased TopoGEN, Inc
Protocol: Topoisomerase II inhibitory activity was measured using a Topoisomerase II Drug Screening Kit (TopoGEN, Inc.) per the manufacturer's protocol. Taragpremir-210 (200 nM) was added to 300 ng of DNA in 1× Complete Buffer (50 mM Tris-HCl, pH 8, 150 mM NaCl, 10 mM MgCl2, 0.5 mM dithiothreitol, 30 μg/mL BSA, and 2 mM ATP), followed by addition of 7.5 U of Topoisomerase II enzyme. The samples were incubated for 30 min at 37° C., and the reaction was stopped by the addition of 2 µL of 10% sodium dodecyl sulfate (SDS). Proteinase K (50 μg/mL) was then added and the solution was incubated for 15 min at 37° C. Topoisomers were separated on 1% agarose gels with or without 0.5 μg/mL ethidium bromide. Note, for gels containing ethidium bromide, the 1× TAE running buffer was also supplemented with 0.5 μg/mL ethidium bromide. Gels prepared without ethidium bromide were post-stained (0.5 μg/mL ethidium bromide). Both types of gels were destained in 1× TAE for 15 min, and the DNA products were visualized using a Bio-Rad Gel Doc XR+imaging system.

[14] = test system: miR-96 and miR-210 levels; assay: Effect on miR-96 and miR-210 levels under hypoxic conditions; type: cell-based
miR-210 [15] = assay: RT-qPCR of miR-210 (mature, pri-, pre-) in MDA-MB-231 cells under hypoxic conditions; type: cell-based
Protocol: as §5, §6

[16] = 200 nM, hypoxic MDA-MB-231 cells

T1 sequence (P11388 whole entry): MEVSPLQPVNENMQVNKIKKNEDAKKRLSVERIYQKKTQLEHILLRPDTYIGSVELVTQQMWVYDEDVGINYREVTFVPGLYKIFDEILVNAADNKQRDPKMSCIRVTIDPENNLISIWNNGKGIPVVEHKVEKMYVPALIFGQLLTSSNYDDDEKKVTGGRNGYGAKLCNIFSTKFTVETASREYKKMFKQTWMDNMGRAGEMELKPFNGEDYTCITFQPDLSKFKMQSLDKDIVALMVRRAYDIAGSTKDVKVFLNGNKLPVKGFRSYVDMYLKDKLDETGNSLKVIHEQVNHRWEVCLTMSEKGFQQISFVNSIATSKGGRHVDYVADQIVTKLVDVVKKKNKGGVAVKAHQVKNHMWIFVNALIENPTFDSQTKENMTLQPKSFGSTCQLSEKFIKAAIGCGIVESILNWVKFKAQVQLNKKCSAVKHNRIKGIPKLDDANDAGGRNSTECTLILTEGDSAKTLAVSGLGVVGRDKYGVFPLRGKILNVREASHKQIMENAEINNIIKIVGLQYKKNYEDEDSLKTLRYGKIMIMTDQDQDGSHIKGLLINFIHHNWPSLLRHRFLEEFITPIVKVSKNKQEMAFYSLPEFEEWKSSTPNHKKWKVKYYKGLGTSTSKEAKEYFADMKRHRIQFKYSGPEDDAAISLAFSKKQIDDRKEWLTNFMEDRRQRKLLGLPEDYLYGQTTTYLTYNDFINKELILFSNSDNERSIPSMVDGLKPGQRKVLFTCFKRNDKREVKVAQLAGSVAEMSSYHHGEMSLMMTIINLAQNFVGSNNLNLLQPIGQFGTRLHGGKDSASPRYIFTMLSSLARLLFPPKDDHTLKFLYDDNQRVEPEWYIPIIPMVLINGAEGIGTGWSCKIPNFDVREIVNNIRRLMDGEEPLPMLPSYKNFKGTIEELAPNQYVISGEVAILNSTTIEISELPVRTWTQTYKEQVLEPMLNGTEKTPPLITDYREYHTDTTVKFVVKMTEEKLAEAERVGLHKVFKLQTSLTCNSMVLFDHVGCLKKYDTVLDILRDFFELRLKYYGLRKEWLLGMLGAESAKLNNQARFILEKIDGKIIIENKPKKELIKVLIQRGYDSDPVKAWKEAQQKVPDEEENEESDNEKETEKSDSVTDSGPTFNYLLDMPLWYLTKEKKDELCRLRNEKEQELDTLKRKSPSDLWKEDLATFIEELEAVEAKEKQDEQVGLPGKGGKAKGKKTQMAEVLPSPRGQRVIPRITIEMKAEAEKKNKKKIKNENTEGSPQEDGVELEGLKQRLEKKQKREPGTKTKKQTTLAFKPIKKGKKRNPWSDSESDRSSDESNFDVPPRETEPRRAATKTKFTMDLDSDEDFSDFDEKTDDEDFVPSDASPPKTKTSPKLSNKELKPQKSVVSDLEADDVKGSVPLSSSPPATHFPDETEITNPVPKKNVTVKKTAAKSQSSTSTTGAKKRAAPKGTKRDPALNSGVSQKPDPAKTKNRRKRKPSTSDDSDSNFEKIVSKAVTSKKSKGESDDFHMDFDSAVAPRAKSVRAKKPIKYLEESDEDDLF

Molecule: CN1CCN(c2ccc3nc(-c4ccc5[nH]c(-c6cccc(OCCCC(=O)NCCCN=[N+]=[N-])c6)nc5c4)[nH]c3c2)CC1 [Targapremir-210]
- IC50 [1]: 200 nM
- tumor growth (luciferase signal intensity, mass of the resected tumor) [2]: significantly decreased tumor growth
- reduction of HIF-1α mRNA levels (HIF-1α mRNA [3]): ~75%
- highest relative fold pull-down among hypoxia-associated miRNAs other than miR-210 ([4]; Chem-CLIP probe pull-down, three of 28 enriched (miR-181a, miR-205, miR-206)): ~2.8 fold
- abundance of other hypoxia-associated miRNAs as a function of Targapremir-210 concentration (C-Chem-CLIP) ([4]; MDA-MB-231 cells): did not change
- Kd [5]: ~200 nM
- binding to in vitro transcribed pre-miR-210 (pre-miR-210 RNA): binds similarly
- GPD1L levels in resected tumors (GPD1L mRNA): doubled
- miRNAs with RNA isoform bound in cells (Chem-CLIP) [6]: only four of the miRNAs are bound
- effect on expression levels of miRNAs with predicted compound binding sites [7]: only affected levels of miR-210; also recorded: no statistically significant effect
- reduction of miR-210 levels in resected tumors (miR-210 [8]): ~90%
- apoptosis (MDA-MB-231 cells; hypoxic conditions): induced apoptosis
- apoptosis with overexpression of pre-miR-210 (MDA-MB-231 cells; hypoxic conditions, pre-miR-210 overexpressed): allowed cells to escape apoptosis
- apoptosis (MDA-MB-231 cells; normoxia): did not induce apoptosis
- compound localization in tumor [9]: able to reach the tumor and sustain for the entire 21-day period
- increase of GPD1L levels (GPD1L): ~4 fold
- effect on levels of hypoxia-associated miRNAs [10]: affected only levels of mature miR-210
- binding to RNA in which the Dicer site was ablated [11]: did not bind
- inhibition of Dicer processing of pre-miR-210 in vitro [12]: inhibited pre-miR-210 processing at nanomolar concentrations
- reduction of HIF-1α levels in resected tumors (HIF-1α mRNA [13]): ~75%
- inhibition of topoisomerase enzymatic activity (Topoisomerase II): did not inhibit topoisomerase activity
- effect on miR-96 and miR-210 levels [14]: only affects miR-210
- increase in pre-miR-210 levels (miR-210 [15]; [16]): ~2.6 fold
- increase in pri-miR-210 levels (miR-210 [15]; [16]): ~3 fold
- IC50 (miR-210 [15]; Homo sapiens, MDA-MB-231 cells, hypoxic conditions, RT-qPCR, read-out: IC50, decrease of mature miR-210 levels): ~200 nM

Molecule: Targaprimir-96 [reference compound]
- effect on miR-96 and miR-210 levels [14]: only affects miR-96
